Earlier results, collected in patent US20070184084A1, “IMPLANTABLE ELASTOMERIC CAPROLACTONE DEPOT COMPOSITIONS AND USES THEREOF” (priority 2003, published 2007).

Conditions: reported value

For `CC(=O)OCC(COC(C)=O)OC(C)=O` [triacetin], the solubility in water is listed as 7.17 grams in 100 ml of water.
